The subject of series [1] is OCI-LY10 cells. Nature of the series: Inhibitory activity on OCI-LY10 cell proliferation (MTS). It counts as cell-based. The note with it: Homo sapiens, 72 h or 168 h. Here is the method:
(§1) The anti-tumor efficacy of the compounds was tested by measuring their inhibitory effects on OCI-LY10 and Mino cell proliferation. OCI-LY10 and Mino cells were cultured in RPM-1640 medium containing […] fetal calf serum. OCI-LY10 and Mino cells were digested, inoculated in a 96-well plate at a cell concentration of 10000 cells/well, and incubated overnight at 37° C., 5% CO2. Compounds of different concentrations (1000 nM, 4-fold dilution, 8 points) were added to the 96-well plate and incubated for 72 h or 168 h at 37° C. and […], and then 20 μL of MTS was added to each well. After incubation for 2 h, 25 μl of 10% SDS was added to each well to terminate the reaction. The absorbance at 490 nm and 650 nm were measured with a microplate reader. IC50 was calculated using GraphPad Prism 5.0.

The subject of series [2] is Mino cells. Nature of the series: Inhibitory activity on Mino cell proliferation (MTS). The series is classed as cell-based. The note with it: Homo sapiens, 72 h or 168 h. As for the experimental part:
as §1

A short description of series [3]: Mouse absorption test. The series is classed as in vivo. The note with it: mice, intragastric 10 mg/kg, plasma. As for the experimental part:
Experimental method: mice were used as experimental animals, and drugs were administered intragastrically at 10 mg/kg (5% DMSO+5% Solutol+90% saline). The blood collection time points for intragastric administration were 0.25, 0.5, 1, 2, 4, 6, 8, and 24 h. 0.3 ml of whole blood was taken, and 0.1 ml of plasma was taken after centrifugation and analyzed by LC-MS.

Series [4] in a line: Liver microsomal metabolic stability, human. The series is classed as in vitro ADME. The note with it: human liver microsomes, NADPH, 37° C. Here is the method: (§2) Under the condition of ice bath, 1 mg of human or Mouse liver microparticles was add to PBS (1 mL) buffer, then NADPH (20 μL) was added, and incubated at 37° C. for 5 min. 10 μL of the compound to be tested was added, then suck several times with a pipette and divide into 3 aliquots of 330 μL; each and then samples were taken at 0, 15, 30, 60 and 120 min respectively. 10 μL of the solution was taken with a pipette each time and added to 490 μL of the solution containing the internal standard compound. The resulting solution was vortexed and then placed on ice, and then sampling at another time point continues. All samples were centrifuged at 10,000 rpm for 10 min, and the supernatant was taken for LC/MS testing. The metabolism of the compound in liver microsomes was calculated based on the peak area.
On the technique in general: Liver microsomes are vesicles of endoplasmic reticulum, rich in cytochrome P450 enzymes.

Series [5] in a line: Liver microsomal metabolic stability, mouse. The series is classed as in vitro ADME. The note with it: mouse liver microsomes, NADPH, 37° C. As for the experimental part: as §2
The target in series [6] is T1, BTK (Homo sapiens, UniProt Q06187).
T1 construct: endogenous in cells; host or cells: Mino cells
Put plainly: BTK degradation activity test in Mino cells (Westernblot or Elisa). The note with it: 24-72 h incubation. The series is classed as cell-based. Here is the method:
The Mino cell line cells are 0.5˜1 million/well in 6-well plates. The compounds are diluted to different concentrations, added to the plate, and after 24-72 h of incubation, the cells are collected. After the cells were lysed, the total protein concentration in each well was determined with a BCA kit. The amount of BTK is determined using the Westernblot or Elisa method.

Series [7] in a line: Rat absorption test. The series is classed as in vivo. As to conditions: SD rats, intragastric 10 mg/kg, plasma. Here is the method:
SD Rats were used as experimental animals, and drugs were administered intragastrically at 10 mg/kg (5% DMSO+5% Solutol+90% normal saline). The blood collection time points for intragastric administration were 0.25, 0.5, 1, 2, 4, 6, 8, and 24 h. 0.3 ml of whole blood was taken, and 0.1 ml of plasma was taken after centrifugation and analyzed by LC-MS.

Each structure is given as a SMILES string.

T1 sequence (Q06187 whole entry): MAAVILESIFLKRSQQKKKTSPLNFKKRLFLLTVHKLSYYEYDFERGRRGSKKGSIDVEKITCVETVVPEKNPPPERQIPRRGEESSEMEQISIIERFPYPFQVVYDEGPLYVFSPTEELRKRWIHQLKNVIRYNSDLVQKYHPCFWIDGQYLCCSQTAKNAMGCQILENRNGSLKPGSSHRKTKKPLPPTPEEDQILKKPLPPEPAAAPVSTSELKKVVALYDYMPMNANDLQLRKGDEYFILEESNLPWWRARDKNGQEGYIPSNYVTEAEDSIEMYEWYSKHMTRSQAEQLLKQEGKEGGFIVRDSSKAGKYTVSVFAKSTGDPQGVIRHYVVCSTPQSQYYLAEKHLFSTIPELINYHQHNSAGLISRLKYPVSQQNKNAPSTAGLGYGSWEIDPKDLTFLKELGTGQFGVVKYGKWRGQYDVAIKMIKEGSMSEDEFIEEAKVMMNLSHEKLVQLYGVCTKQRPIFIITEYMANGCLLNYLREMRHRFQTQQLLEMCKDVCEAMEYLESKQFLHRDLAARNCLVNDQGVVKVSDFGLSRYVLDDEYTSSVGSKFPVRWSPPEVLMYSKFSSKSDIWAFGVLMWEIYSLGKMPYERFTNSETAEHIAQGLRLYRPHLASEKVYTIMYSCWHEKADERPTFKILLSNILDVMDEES

Broadly, the IC50 is the midpoint of a concentration-inhibition curve. Low values mean inhibition by little substance, high ones a need for much substance. The term DC50 denotes the concentration giving 50% degradation. High values mean a less potent degrader, low ones a more potent degrader. For `NC(=O)c1nnc(N2CCCCC2)nc1Nc1ccc(C2CCN(CC3CCN(c4ccc5c(c4)C(=O)N(C4CCC(=O)NC4=O)C5=O)C3)CC2)cc1` (stereo not drawn) [Compound 001, 5-((4-(1-((1-(2-(2,6-dioxopiperidin-3-yl)-1,3-dioxoisoindolin-5-yl)pyrrolidin-3-yl)methyl)piperidin-4-yl)phenyl)amino)-3-(piperidin-1-yl)-1,2,4-triazine-6-carboxamide], the IC50 in series [1] is 3 nM; in series [2], 5.5 nM. In series [3], the DNAUC is recorded as 2300 AUC (h*ng/mL)/dose (mg/kg). Besides, the “Thalf (min) Human” value in series [4] turned out to be 71.37 min. Further, the “Thalf (min) Mouse” value in series [5] amounted to 47.13 min. The DC50 in series [6] is less than 10 nM.
In the case of `NC(=O)c1nnc(N2CCCCC2)nc1Nc1ccc(C2CCN(CC3CCN(c4ccc5c(c4)C(=O)N(C4CCC(=O)NC4=O)C5=O)C3)CC2)c(F)c1` (stereo not drawn) [Compound 002, 5-((4-(1-((1-(2-(2,6-dioxopiperidin-3-yl)-1,3-dioxoisoindolin-5-yl)pyrrolidin-3-yl)methyl)piperidin-4-yl)-3-fluorophenyl)amino)-3-(piperidin-1-yl)-1,2,4-triazine-6-carboxamide], the results for the DNAUC in series [3] and in series [7] were 2223 AUC (h*ng/mL)/dose (mg/kg) and 252 AUC (h*ng/mL)/dose (mg/kg), respectively. Moreover, the “Thalf (min) Human” value in series [4] is 120 min. In series [5], the “Thalf (min) Mouse” value is given as 54 min. This molecule registered a DC50 in series [6] of less than 10 nM.
Regarding `NC(=O)c1nnc(N2CCCCC2)nc1Nc1ccc(N2CCN(CC3CCN(c4ccc5c(c4)C(=O)N(C4CCC(=O)NC4=O)C5=O)C3)CC2)c(F)c1` (stereo not drawn) [Compound 003, 5-((4-(4-((1-(2-(2,6-dioxopiperidin-3-yl)-1,3-dioxoisoindolin-5-yl)pyrrolidin-3-yl)methyl)piperazin-1-yl)-3-fluorophenyl)amino)-3-(piperidin-1-yl)-1,2,4-triazine-6-carboxamide], the DNAUC in series [3] is on record as 1648 AUC (h*ng/mL)/dose (mg/kg); in series [7] it was 456 AUC (h*ng/mL)/dose (mg/kg). Further, the DC50 in series [6] was less than 10 nM.
In series [2], `NC(=O)c1nnc(N2CCCCC2)nc1Nc1ccc(C2CCN(CC3CCN(c4ccc5c(c4)C(=O)N(C4CCC(=O)NC4=O)C5=O)CC3)CC2)c(F)c1` (stereo not drawn) [Compound 007, 5-((4-(1-((1-(2-(2,6-dioxopiperidin-3-yl)-1,3-dioxoisoindolin-5-yl)piperidin-4-yl)methyl)piperidin-4-yl)-3-fluorophenyl)amino)-3-(piperidin-1-yl)-1,2,4-triazine-6-carboxamide] returned an IC50 of 5.31 nM. In series [3], the DNAUC is given as 1955 AUC (h*ng/mL)/dose (mg/kg). Further, the DC50 in series [6] was less than 10 nM.
Taken in the same sequence, the figures for `NC(=O)c1nnc(N2CCCCC2)nc1Nc1ccc(N2CCC(CN3CCN(c4ccc5c(c4)C(=O)N(C4CCC(=O)NC4=O)C5=O)CC3)CC2)c(F)c1` (stereo not drawn) [Compound 044, 5-((4-(4-((4-(2-(2,6-dioxopiperidin-3-yl)-1,3-dioxoisoindolin-5-yl)piperazin-1-yl)methyl)piperidin-1-yl)-3-fluorophenyl)amino)-3-(piperidin-1-yl)-1,2,4-triazine-6-carboxamide] were 3.46 nM, 1941 AUC (h*ng/mL)/dose (mg/kg) and less than 10 nM.
As for `NC(=O)c1nnc(N2CCCCC2)nc1Nc1ccc(N2CCC(CN3CCN(c4cc5c(cc4F)C(=O)N(C4CCC(=O)NC4=O)C5=O)CC3)CC2)c(F)c1` (stereo not drawn) [Compound 045, 5-((4-(4-((4-(2-(2,6-dioxopiperidin-3-yl)-6-fluoro-1,3-dioxoisoindolin-5-yl)piperazin-1-yl)methyl)piperidin-1-yl)-3-fluorophenyl)amino)-3-(piperidin-1-yl)-1,2,4-triazine-6-carboxamide], it took 3.91 nM to reach half-maximal inhibition in series [2] (IC50). Moreover, the DNAUC was 1686 AUC (h*ng/mL)/dose (mg/kg) in series [3] and 716 AUC (h*ng/mL)/dose (mg/kg) in series [7]. Further, the “Thalf (min) Human” value in series [4] was 38 min. Moreover, in series [5], the “Thalf (min) Mouse” value is reported as 120 min. The molecule also came in with a DC50 in series [6] of less than 10 nM.
For the molecule `NC(=O)c1nnc(N2CCCCC2)nc1Nc1ccc(N2CCC(CN3CCN(c4cc5c(cc4F)C(=O)N(C4CCC(=O)NC4=O)C5=O)CC3)CC2)cc1` (stereo not drawn) [Compound 046, 5-((4-(4-((4-(2-(2,6-dioxopiperidin-3-yl)-6-fluoro-1,3-dioxoisoindolin-5-yl)piperazin-1-yl)methyl)piperidin-1-yl)phenyl)amino)-3-(piperidin-1-yl)-1,2,4-triazine-6-carboxamide], the DNAUC in series [3] is listed as 1867 AUC (h*ng/mL)/dose (mg/kg). Also, in series [6], the DC50 was less than 10 nM.
Molecule `NC(=O)c1nnc(N2CCCCC2)nc1Nc1ccc(N2CCN(CC3CCN(c4ccc(NC5CCC(=O)NC5=O)nc4)CC3)CC2)c(F)c1` (stereo not drawn) [Compound 077, 5-((4-(4-((1-(6-((2,6-dioxopiperidin-3-yl)amino)pyridin-3-yl)piperidin-4-yl)methyl)piperazin-1-yl)-3-fluorophenyl)amino)-3-(piperidin-1-yl)-1,2,4-triazine-6-carboxamide] had an IC50 in series [1] of 1.59 nM. Moreover, in series [4], the “Thalf (min) Human” value is 57 min. For the same molecule, the “Thalf (min) Mouse” value in series [5] came to 79 min. The same molecule showed a DC50 in series [6] of less than 10 nM. Also, the DNAUC in series [7] is given as 285 AUC (h*ng/mL)/dose (mg/kg).
